Consider two compounds from patent US20240426832A1, “METHODS OF IDENTIFYING COMPOUNDS FOR INDUCING PROTEIN-PROTEIN INTERACTION” (Oncopia Therapeutics, Inc. d/b/a/ SK Life Science Labs, priority 2023, published 2024).

In experiment [1] the target is T1, IKZF2-CRBN (Homo sapiens, UniProt Q96SW2+Q9UKS7). Conditions: stated as known; cited from earlier work.
Experiment [2] concerns the target T1, IKZF2-CRBN. Kind of experiment: glue screening assay (tripartite split-GFP fluorescence), GFP11-tagged IKZF2 and GFP10-tagged CRBN. In kind it is binding. Conditions: protein mix GFP1-9, GFP11-IKZF2, IKZF2-GFP11, GFP10-CRBN, time-course, FIG. 5. The protocol: In another version of the assay, the glue screening assay mixture is assembled in a volume of 2 μL assay buffer (50 mM HEPES buffer, pH 7.5, 150 mM KCl, 4 mM DTT, 0.1 mg/mL BSA, 0.25 mM octyl-beta-glucopyranoside, 5% glycerol with 0.3 μg GFP1-9, 0.05 μg of GFP11-tagged IKZF2, and 0.3 μg GFP10-tagged CRBN. Various variations of the buffer provide consistent signal in this assay (0.1-1 mg/mL BSA, 0-10% glycerol, 0-1 mM octyl-beta-glucopyranoside). Similar to the previous version, two different versions of GFP11-tagged IKZF2 are tested with GFP11 fused to N- and C-termini of IKZF2 (GFP11-IKZF2 and IKZF2-GFP11, respectively). Likewise, two different versions of GFP10-tagged CRBN are tested: GFP10 fused to the N-terminus of CRBN (GFP10-CRBN) and GFP10 fused to the C-terminus of CRBN (CRBN-GFP10). Concentrations correspond to 5 μM of GFP (1-9), 1.25 μM of each of the IKZF2 constructs and 0.5 μM of each of the two CRBN constructs. Concentrations of the IKZF2 and CRBN proteins were optimized for best signal to background by titrating the proteins against each other.
For primary screens, these five different proteins (GFP1-9, GFP11-IKZF2, IKZF2-GFP11, GFP10-CRBN, and CRBN-GFP10) are combined in the assay buffer and added to the plates containing different compound pools. […]

Experiment [3] addresses RBM39 and DCAF15 (Homo sapiens, UniProt Q14498+Q66K64). Conditions: stated as known; cited from earlier work.

T1 sequence (Q9UKS7 whole entry): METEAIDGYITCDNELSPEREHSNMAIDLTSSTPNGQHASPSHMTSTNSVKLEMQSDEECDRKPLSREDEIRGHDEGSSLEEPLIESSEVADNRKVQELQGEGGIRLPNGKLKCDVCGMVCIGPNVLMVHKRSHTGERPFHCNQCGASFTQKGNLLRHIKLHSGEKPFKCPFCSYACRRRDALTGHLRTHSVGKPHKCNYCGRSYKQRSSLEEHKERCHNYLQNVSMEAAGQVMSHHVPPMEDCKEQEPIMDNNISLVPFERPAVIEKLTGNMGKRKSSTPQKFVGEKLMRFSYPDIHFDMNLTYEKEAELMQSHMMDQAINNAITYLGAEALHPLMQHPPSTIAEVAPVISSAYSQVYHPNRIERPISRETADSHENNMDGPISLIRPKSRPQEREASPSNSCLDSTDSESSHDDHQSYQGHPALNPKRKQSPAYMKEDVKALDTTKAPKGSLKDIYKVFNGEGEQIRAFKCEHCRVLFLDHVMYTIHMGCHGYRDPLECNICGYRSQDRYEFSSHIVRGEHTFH
T1 sequence (Q96SW2 whole entry): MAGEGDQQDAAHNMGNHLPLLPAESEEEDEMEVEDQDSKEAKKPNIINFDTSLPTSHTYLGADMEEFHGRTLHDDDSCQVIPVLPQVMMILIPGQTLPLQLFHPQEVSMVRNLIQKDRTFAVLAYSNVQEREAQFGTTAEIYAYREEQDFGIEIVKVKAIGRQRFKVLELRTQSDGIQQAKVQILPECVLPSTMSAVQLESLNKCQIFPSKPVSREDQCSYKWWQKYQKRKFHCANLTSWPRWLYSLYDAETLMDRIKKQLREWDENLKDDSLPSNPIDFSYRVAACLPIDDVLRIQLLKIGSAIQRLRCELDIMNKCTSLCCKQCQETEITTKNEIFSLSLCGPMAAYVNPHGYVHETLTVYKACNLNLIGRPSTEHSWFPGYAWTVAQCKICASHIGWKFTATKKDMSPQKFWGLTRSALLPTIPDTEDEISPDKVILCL
Chain of RBM39 and DCAF15 (Q14498 whole entry, species assumed): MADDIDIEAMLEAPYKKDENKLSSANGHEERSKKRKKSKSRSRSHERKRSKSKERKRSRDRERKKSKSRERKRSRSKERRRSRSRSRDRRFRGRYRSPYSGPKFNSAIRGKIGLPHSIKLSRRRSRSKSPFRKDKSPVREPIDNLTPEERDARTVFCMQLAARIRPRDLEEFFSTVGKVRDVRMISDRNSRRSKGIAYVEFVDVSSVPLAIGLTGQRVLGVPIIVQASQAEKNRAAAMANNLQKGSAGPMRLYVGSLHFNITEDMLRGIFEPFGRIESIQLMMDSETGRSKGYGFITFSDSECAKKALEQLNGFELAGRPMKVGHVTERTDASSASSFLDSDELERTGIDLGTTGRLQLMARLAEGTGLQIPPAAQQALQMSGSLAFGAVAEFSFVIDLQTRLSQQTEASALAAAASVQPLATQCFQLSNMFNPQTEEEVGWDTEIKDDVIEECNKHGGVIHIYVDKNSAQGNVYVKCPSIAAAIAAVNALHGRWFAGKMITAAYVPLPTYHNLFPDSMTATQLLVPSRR
Chain of RBM39 and DCAF15 (Q66K64 whole entry, species assumed): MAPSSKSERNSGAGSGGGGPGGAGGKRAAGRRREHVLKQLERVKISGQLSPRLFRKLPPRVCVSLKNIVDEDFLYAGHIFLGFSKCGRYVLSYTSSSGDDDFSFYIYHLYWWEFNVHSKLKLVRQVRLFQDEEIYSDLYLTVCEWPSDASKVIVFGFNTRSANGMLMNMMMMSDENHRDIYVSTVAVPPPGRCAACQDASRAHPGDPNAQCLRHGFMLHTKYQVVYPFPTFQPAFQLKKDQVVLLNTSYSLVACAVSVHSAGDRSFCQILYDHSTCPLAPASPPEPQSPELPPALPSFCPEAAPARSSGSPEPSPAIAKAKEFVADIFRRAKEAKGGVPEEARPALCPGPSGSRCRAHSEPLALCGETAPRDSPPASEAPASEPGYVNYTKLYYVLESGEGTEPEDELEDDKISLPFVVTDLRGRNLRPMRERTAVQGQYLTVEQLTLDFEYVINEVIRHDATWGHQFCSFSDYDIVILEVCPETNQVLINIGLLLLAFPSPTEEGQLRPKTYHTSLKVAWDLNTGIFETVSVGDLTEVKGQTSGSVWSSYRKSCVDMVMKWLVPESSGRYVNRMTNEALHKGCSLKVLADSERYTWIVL

Regarding `NS(=O)(=O)c1ccc(S(=O)(=O)Nc2cccc3c(Cl)c[nH]c23)cc1` [Indisulam], the “glue activity for IKZF2-CRBN protein pair (known)” value in experiment [1] is recorded as “devoid of glue activity”. Further, the “GFP signal over time compared to the DMSO control” value in experiment [2] was “indistinguishable from the DMSO control”. The “glue activity for protein pair RBM39 and DCAF15 (known)” value in experiment [3] was “known glues”.

Take `Nc1ccc(S(=O)(=O)Nc2cnc3c(Cl)cccc3n2)cc1`: the “glue activity for IKZF2-CRBN protein pair (known)” value in experiment [1] is reported as “devoid of glue activity”. In addition, in experiment [2], the “GFP signal over time compared to the DMSO control” value is listed as “indistinguishable from the DMSO control”. Moreover, the “glue activity for protein pair RBM39 and DCAF15 (known)” value in experiment [3] is “known glues”.
